Tested on: CD4+CD25+FoxP3+ regulatory T cells and CD8+ T cells
Experiment: Flow cytometry of CD8+ T cell and Treg subsets during an immunochemotherapy cycle
Type: in vivo, human
Conditions: day 12 of temozolomide cycle (5/21 schedule), vaccine on day 19
Text: To characterize the response of the various T cell populations during a cycle of temozolomide (5/21 schedule) and concurrently administered vaccine (day 19 on this example), we obtained peripheral blood on days 0, 3, 5, 12, 19, 23, 25 and 26. By flow analysis cytometry, we investigated the percentage of the CD8+ T cell and CD4+CD25+FoxP3+ regulatory T cells subsets during an immunochemotherapy cycle. All fluorescence-conjugated monoclonal antibodies (mAb) (PerCP-Cy5.5-CD3, FITC-CD8, APC-CD4 and PE-CD25) were purchased from BD Biosciences except the FITC-labeled mAb of FoxP3 was made by eBioscience. The surface and intracellular staining of peripheral blood cells were performed according to the standard procedures provided by the manufacturer. Results were analyzed by FACSCalibur flow cytometer using Cellquest Pro software (BD Biosciences). In contrast to the decline of the CD8+ T cell subset, the Treg population started to increase after the administration of temozolomide for 3 days and reached its peak (0.9% of total CD4^+ T cells) on day 12. The Tregs then began to drop until day 23 while the CD8^+ T cell numbers started to recover. At the end of the course, both of CD8^+ T cell and Treg populations recovered to pre-treatment levels.

Cn1nnc2c(C(N)=O)ncn2c1=O [temozolomide]
Treg population peak: 0.9 % of total CD4+ T cells
